Laboratory results from ChEMBL document CHEMBL1201862, “PubChem BioAssay data set” (2004).
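Cells were grown in 96-well plates and exposed to each compound for 48 hours at five concentrations; endpoints were interpolated linearly between bracketing concentrations, or set to the highest concentration if not reached. GI50 marks 50% less growth.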 The source made the active and inactive calls. Cut-off read from the data, not from the text of the source: active = GI50 up to about 1.1 µM and inactive = higher.

Columns and labels:
Experiment in all cases: growth of human tumour cells (NCI), 48 h
NCI-H460 = tested on: NCI-H460
MDA-MB-231 = tested on: MDA-MB-231
HOP-62 = tested on: HOP-62
SR = tested on: SR
SN12C = tested on: SN12C
DU-145 = tested on: DU-145
786-0 = tested on: 786-0
RPMI-8226 = tested on: RPMI-8226
PC-3 = tested on: PC-3
Hs-578T = tested on: Hs-578T
HCT-116 = tested on: HCT-116
KM12 = tested on: KM12
NCI-H226 = tested on: NCI-H226
MDA-MB-435 = tested on: MDA-MB-435
SF-539 = tested on: SF-539
SK-MEL-5 = tested on: SK-MEL-5
SK-MEL-2 = tested on: SK-MEL-2
CCRF-CEM = tested on: CCRF-CEM
OVCAR-3 = tested on: OVCAR-3
HCC 2998 = tested on: HCC 2998

Row | SMILES | GI50 (NCI-H460) | GI50 (MDA-MB-231) | GI50 (HOP-62) | GI50 (SR) | GI50 (SN12C) | GI50 (DU-145) | GI50 (786-0) | GI50 (RPMI-8226) | GI50 (PC-3) | GI50 (Hs-578T) | GI50 (HCT-116) | GI50 (KM12) | GI50 (NCI-H226) | GI50 (MDA-MB-435) | GI50 (SF-539) | GI50 (SK-MEL-5) | GI50 (SK-MEL-2) | GI50 (CCRF-CEM) | GI50 (OVCAR-3) | GI50 (HCC 2998)
1 | O=C1Oc2ccccc2C(=O)/C1=C\Nc1nc(-c2ccccc2)cs1 | > 100 µM (inactive) | 18.9 µM (inactive) | 23.4 µM (inactive) | 2.01 µM (inactive) | 7.08 µM (inactive) | 15.3 µM (inactive) | 5.83 µM (inactive) | 4.47 µM (inactive) | 16.9 µM (inactive) | 15.7 µM (inactive) | 4.95 µM (inactive) | 16.7 µM (inactive) | 3.24 µM (inactive) | 7.38 µM (inactive) | 2.94 µM (inactive) | 2.75 µM (inactive) | 14.3 µM (inactive) | 1.35 µM (inactive) | 14.3 µM (inactive) | 51.4 µM (inactive)
2 | CNC(=S)N/N=C(\C)c1ccc(OC)cc1O | > 100 µM (inactive) | > 100 µM (inactive) | > 100 µM (inactive) | 29.3 µM (inactive) | > 91.4 µM (inactive) | > 100 µM (inactive) | > 100 µM (inactive) | > 32 µM (inactive) | > 100 µM (inactive) | > 89.9 µM (inactive) | > 100 µM (inactive) | > 100 µM (inactive) | 73.8 µM (inactive) | > 100 µM (inactive) | > 100 µM (inactive) | 7.45 µM (inactive) | > 100 µM (inactive) | 0.865 µM (active) | > 100 µM (inactive) | > 100 µM (inactive)
3 | C=CC(CCc1ccc(C(=O)OCC)cc1)c1c(N)nc(N)[nH]c1=O (stereo not given) | > 100 µM (inactive) | > 100 µM (inactive) | > 100 µM (inactive) | > 100 µM (inactive) | > 100 µM (inactive) | > 100 µM (inactive) | > 100 µM (inactive) | 44.8 µM (inactive) | 52.6 µM (inactive) | > 100 µM (inactive) | > 100 µM (inactive) | > 100 µM (inactive) | 84.9 µM (inactive) | > 100 µM (inactive) | > 100 µM (inactive) | 23.5 µM (inactive) | > 100 µM (inactive) | 73.3 µM (inactive) | 72.1 µM (inactive) | > 100 µM (inactive)
4 | COC(=O)/C=C1\C(=O)N(C(C)=O)c2ccc(Br)cc21 | 14.6 µM (inactive) | 14.9 µM (inactive) | 13.2 µM (inactive) | 2.8 µM (inactive) | 5.71 µM (inactive) | 12.8 µM (inactive) | 5.46 µM (inactive) | 2.66 µM (inactive) | 8.75 µM (inactive) | 8.39 µM (inactive) | 6.92 µM (inactive) | 14.3 µM (inactive) | 15.1 µM (inactive) | 9.35 µM (inactive) | 4.67 µM (inactive) | 9.68 µM (inactive) | 13.9 µM (inactive) | 1.47 µM (inactive) | 4.76 µM (inactive) | 17.7 µM (inactive)
5 | CCC(=O)OCOc1ccc(/C=C2\CCC(CN(C)C)C2=O)cc1 (stereo not given) | 15.9 µM (inactive) | 3.67 µM (inactive) | 15.2 µM (inactive) | 2.15 µM (inactive) | 2.72 µM (inactive) | 10.8 µM (inactive) | 2.45 µM (inactive) | 2.43 µM (inactive) | 14.2 µM (inactive) | 6.27 µM (inactive) | 2.74 µM (inactive) | 3.9 µM (inactive) | 13.8 µM (inactive) | 3.34 µM (inactive) | 8.41 µM (inactive) | 11.7 µM (inactive) | 11 µM (inactive) | 1.61 µM (inactive) | 3.7 µM (inactive) | 5.96 µM (inactive)
6 | O=C1N/C(=N\N=C\c2ccccc2)C2(CCCCC2)O1 | 45 µM (inactive) | > 100 µM (inactive) | 83.4 µM (inactive) | 16.3 µM (inactive) | 95.3 µM (inactive) | > 100 µM (inactive) | 64.9 µM (inactive) | 53.5 µM (inactive) | 80.4 µM (inactive) | 46.8 µM (inactive) | 59.2 µM (inactive) | > 100 µM (inactive) | 44.5 µM (inactive) | > 100 µM (inactive) | > 100 µM (inactive) | 55.8 µM (inactive) | > 100 µM (inactive) | 17.8 µM (inactive) | 44.9 µM (inactive) | 87.3 µM (inactive)
7 | CC(C)=CCC[C@](C)(O[C@@H]1O[C@H](CO)[C@@H](O)[C@H](O)[C@H]1O)[C@H]1CC[C@]2(C)[C@@H]1[C@H](O)C[C@@H]1[C@@]3(C)CC[C@H](O)C(C)(C)[C@@H]3[C@@H](O[C@@H]3O[C@H](CO)[C@@H](O)[C@H](O)[C@H]3O)C[C@]12C [GINSENOSIDE RG1] | > 100 µM (inactive) | > 100 µM (inactive) | > 100 µM (inactive) | > 100 µM (inactive) | > 100 µM (inactive) | > 100 µM (inactive) | > 100 µM (inactive) | > 100 µM (inactive) | > 100 µM (inactive) | > 100 µM (inactive) | > 100 µM (inactive) | > 100 µM (inactive) | > 100 µM (inactive) | > 100 µM (inactive) | > 100 µM (inactive) | > 100 µM (inactive) | > 100 µM (inactive) | > 100 µM (inactive) | > 100 µM (inactive) | > 100 µM (inactive)
